Laboratory results published in ChEMBL document CHEMBL1201862, “PubChem BioAssay data set” (2004).
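In this assay, cells in 96-well plates receive the compound at five concentrations for 48 hours. Endpoints are linearly interpolated between the surrounding concentrations. Abbreviation: GI50, concentration required for 50% inhibition of growth.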 The source made the active and inactive calls. Cut-off read from the data, not from the text of the source: active = GI50 up to about 1.1 µM and inactive = higher.

Legend:
Test in all cases: NCI-60 cell line screen, 48 h
COLO 205 = system: COLO 205
NCI-H23 = system: NCI-H23
OVCAR-5 = system: OVCAR-5
OVCAR-8 = system: OVCAR-8
NCI/ADR-RES = system: NCI/ADR-RES
SK-MEL-5 = system: SK-MEL-5
UO-31 = system: UO-31
MDA-N = system: MDA-N
BT-549 = system: BT-549
A549 = system: A549
Malme-3M = system: Malme-3M
CAKI-1 = system: CAKI-1
MDA-MB-435 = system: MDA-MB-435
RXF 393 = system: RXF 393
U-251 = system: U-251
HOP-92 = system: HOP-92
SF-268 = system: SF-268
HL-60 = system: HL-60
SK-OV-3 = system: SK-OV-3
MCF7 = system: MCF7
UACC-62 = system: UACC-62
HCT-116 = system: HCT-116
SR = system: SR
EKVX = system: EKVX
ACHN = system: ACHN
NCI-H522 = system: NCI-H522
UACC-257 = system: UACC-257
SW-620 = system: SW-620
PC-3 = system: PC-3
CCRF-CEM = system: CCRF-CEM
HT-29 = system: HT-29
MDA-MB-231 = system: MDA-MB-231
NCI-H460 = system: NCI-H460
M14 = system: M14
RPMI-8226 = system: RPMI-8226
A498 = system: A498
T47D = system: T47D
K562 = system: K562
SK-MEL-28 = system: SK-MEL-28
OVCAR-4 = system: OVCAR-4
SN12C = system: SN12C
HCC 2998 = system: HCC 2998
Hs-578T = system: Hs-578T
TK-10 = system: TK-10
OVCAR-3 = system: OVCAR-3
SF-295 = system: SF-295
HOP-62 = system: HOP-62
LOX IMVI = system: LOX IMVI
NCI-H226 = system: NCI-H226
SK-MEL-2 = system: SK-MEL-2
MOLT-4 = system: MOLT-4
IGROV-1 = system: IGROV-1
KM12 = system: KM12
HCT-15 = system: HCT-15
DU-145 = system: DU-145
SF-539 = system: SF-539
SNB-19 = system: SNB-19
SNB-75 = system: SNB-75
786-0 = system: 786-0

Measured: GI50

CC1(C)C2CCC1(CS(=O)(=O)Nc1ccccc1)C(=O)C2 (stereo unspecified)
> 100 µM: HCT-15
inactive: COLO 205 > 100 µM | NCI-H23 > 100 µM | OVCAR-5 > 100 µM | OVCAR-8 > 100 µM | NCI/ADR-RES > 100 µM | SK-MEL-5 > 100 µM | UO-31 75.9 µM | MDA-N > 100 µM | BT-549 > 100 µM | A549 > 100 µM | Malme-3M > 100 µM | CAKI-1 > 100 µM | MDA-MB-435 > 100 µM | RXF 393 > 100 µM | U-251 > 100 µM | HOP-92 > 100 µM | SF-268 > 100 µM | HL-60 > 100 µM | SK-OV-3 > 100 µM | MCF7 > 100 µM | UACC-62 > 100 µM | HCT-116 > 100 µM | SR 35.5 µM | EKVX > 100 µM | ACHN > 100 µM | NCI-H522 > 100 µM | UACC-257 > 100 µM | SW-620 > 100 µM | PC-3 > 100 µM | CCRF-CEM 11.7 µM | HT-29 > 100 µM | MDA-MB-231 > 100 µM | NCI-H460 > 100 µM | M14 > 100 µM | RPMI-8226 > 100 µM | A498 > 100 µM | T47D > 100 µM | K562 > 100 µM | SK-MEL-28 > 100 µM | OVCAR-4 > 100 µM | SN12C > 100 µM | HCC 2998 > 100 µM | Hs-578T > 100 µM | TK-10 > 100 µM | OVCAR-3 > 100 µM | SF-295 > 100 µM | HOP-62 > 100 µM | LOX IMVI > 100 µM | NCI-H226 > 100 µM | SK-MEL-2 > 100 µM | MOLT-4 > 100 µM | IGROV-1 > 100 µM | KM12 > 100 µM | DU-145 > 100 µM | SF-539 > 100 µM | SNB-19 > 100 µM | SNB-75 89.9 µM | 786-0 > 100 µM

CC(=O)O[C@@H]1C(C2CCCCC2)C=[N+]([O-])O[C@@H]1OC1CCCC1(c1ccccc1)c1ccccc1 (stereo partly specified)
1.92 µM: HCT-15
inactive: COLO 205 5.73 µM | NCI-H23 11 µM | OVCAR-5 15.8 µM | OVCAR-8 2.04 µM | NCI/ADR-RES 10.2 µM | SK-MEL-5 14.3 µM | UO-31 8.09 µM | MDA-N 4.28 µM | BT-549 12.4 µM | A549 14.8 µM | Malme-3M 2.99 µM | CAKI-1 5.33 µM | MDA-MB-435 3.06 µM | RXF 393 2.58 µM | U-251 12.5 µM | HOP-92 10.1 µM | SF-268 7.4 µM | HL-60 1.6 µM | SK-OV-3 15.7 µM | MCF7 3.18 µM | UACC-62 5.81 µM | HCT-116 4.06 µM | SR 2.62 µM | EKVX 15.7 µM | ACHN 2.21 µM | NCI-H522 2.07 µM | UACC-257 14.9 µM | SW-620 2.04 µM | PC-3 9.59 µM | CCRF-CEM 2.63 µM | HT-29 2.09 µM | MDA-MB-231 8.45 µM | NCI-H460 13.3 µM | M14 5.31 µM | RPMI-8226 2.58 µM | A498 7.41 µM | T47D 2.45 µM | K562 3.61 µM | SK-MEL-28 2.32 µM | OVCAR-4 7.98 µM | SN12C 9.23 µM | HCC 2998 8.57 µM | Hs-578T 11 µM | TK-10 14.5 µM | OVCAR-3 2.7 µM | SF-295 14.4 µM | HOP-62 14.9 µM | LOX IMVI 1.94 µM | NCI-H226 16.6 µM | SK-MEL-2 9.91 µM | MOLT-4 3.32 µM | IGROV-1 3.21 µM | KM12 8.04 µM | DU-145 10.9 µM | SF-539 3.94 µM | SNB-19 16.5 µM | SNB-75 3.85 µM | 786-0 3.76 µM

Cn1c(=O)sc2cc(C(=S)N3CCOCC3)ccc21
inactive: COLO 205 > 80.7 µM | NCI-H23 > 100 µM | OVCAR-5 > 100 µM | OVCAR-8 > 47.1 µM | NCI/ADR-RES > 73.1 µM | SK-MEL-5 > 100 µM | UO-31 60 µM | MDA-N > 100 µM | BT-549 > 100 µM | A549 > 100 µM | Malme-3M 3.48 µM | CAKI-1 > 100 µM | MDA-MB-435 > 100 µM | RXF 393 > 100 µM | U-251 > 59.7 µM | HOP-92 9.89 µM | SF-268 > 100 µM | HL-60 24.7 µM | SK-OV-3 > 100 µM | MCF7 > 100 µM | UACC-62 > 100 µM | HCT-116 > 100 µM | SR 69.7 µM | EKVX > 28.8 µM | ACHN > 100 µM | NCI-H522 87.3 µM | UACC-257 > 100 µM | SW-620 > 100 µM | PC-3 > 100 µM | CCRF-CEM 28.6 µM | HT-29 > 79.3 µM | MDA-MB-231 > 100 µM | NCI-H460 > 100 µM | M14 > 100 µM | RPMI-8226 > 79.8 µM | A498 > 100 µM | T47D > 100 µM | K562 41.2 µM | SK-MEL-28 > 100 µM | OVCAR-4 > 100 µM | SN12C > 100 µM | HCC 2998 > 100 µM | Hs-578T > 41 µM | TK-10 > 100 µM | OVCAR-3 > 100 µM | SF-295 > 100 µM | HOP-62 > 100 µM | LOX IMVI > 85.7 µM | NCI-H226 > 46.9 µM | SK-MEL-2 > 100 µM | MOLT-4 39.9 µM | IGROV-1 > 51.5 µM | KM12 > 100 µM | DU-145 > 100 µM | SF-539 > 100 µM | SNB-19 > 100 µM | SNB-75 > 34 µM | 786-0 > 100 µM
> 92.3 µM: HCT-15

CC1OC2/C=C\CC(O)C(C)(C)C3CCC(C)C4(O3)O[B-]35OC(C(=O)OC1C2)C1(OC(CCC1C)C(C)(C)C(O)C/C=C\C1CC(OC(=O)C4O3)C(C)O1)O5 (stereo unspecified)
active: HL-60 1.06 µM | NCI-H522 0.344 µM | CCRF-CEM 0.718 µM | NCI-H226 0.726 µM | MOLT-4 1.01 µM | SNB-75 0.39 µM
inactive: COLO 205 2.03 µM | NCI-H23 1.85 µM | OVCAR-5 7.45 µM | OVCAR-8 3.13 µM | NCI/ADR-RES 3.2 µM | SK-MEL-5 2.21 µM | UO-31 17.7 µM | MDA-N 3.15 µM | BT-549 2.54 µM | A549 2.55 µM | Malme-3M 1.86 µM | CAKI-1 7.6 µM | MDA-MB-435 2.54 µM | RXF 393 1.87 µM | U-251 1.33 µM | HOP-92 2.94 µM | SF-268 2.02 µM | SK-OV-3 4.47 µM | MCF7 2.01 µM | UACC-62 2.01 µM | HCT-116 2.01 µM | SR 1.78 µM | EKVX 2.15 µM | ACHN 3.45 µM | UACC-257 1.77 µM | SW-620 2.94 µM | PC-3 2.77 µM | HT-29 2.75 µM | MDA-MB-231 1.99 µM | NCI-H460 1.6 µM | M14 2.11 µM | RPMI-8226 1.63 µM | A498 2.45 µM | T47D 2.81 µM | K562 7.46 µM | SK-MEL-28 1.77 µM | OVCAR-4 7.76 µM | SN12C 2.69 µM | HCC 2998 1.66 µM | Hs-578T 1.54 µM | TK-10 2.97 µM | OVCAR-3 1.89 µM | SF-295 1.8 µM | HOP-62 2.08 µM | LOX IMVI 1.97 µM | SK-MEL-2 1.54 µM | IGROV-1 13.9 µM | KM12 3.07 µM | DU-145 7.96 µM | SF-539 2.42 µM | SNB-19 2.39 µM | 786-0 2.83 µM
5.37 µM: HCT-15
